The results in this text go back to patent publication US20220194918A1, “PLEUROMULIN LIPOIC ACID ESTER WITH ANTIBACTERIAL ACTIVITY AND A METHOD OF PREPARING THE SAME” (SHAANXI UNIVERSITY OF SCIENCE AND TECHNOLOGY, priority 2020, published 2022).

Holding throughout (format): cell-based
For assay [1], the system named is multi-resistant Staphylococcus aureus 18-206. The experiment in a line: Paper diffusion drug sensitivity test, multi-resistant Staphylococcus aureus 18-206. The following applies: for Zone of inhibition: Multi-resistant Staphylococcus aureus 18-206, 30 μg/tablet paper disc, LB plate, 37° C., 24 h; for inhibitory effect (in words): multi-drug resistant Staphylococcus aureus 18-206, FIGS. 1-3 and Table 1. How it is done: (§1) The antimicrobial efficacy was determined by a paper diffusion drug sensitivity test.
(§2) Experimental strains: multi-resistant Staphylococcus aureus 18-206, multi-resistant Staphylococcus aureus 18-222, multi-resistant Staphylococcus aureus 18-596. The experimental strain was identified by Huashan Hospital Affiliated to Fudan University (Institute of Antibiotic of Fudan University).
(§3) Drug sensitive paper: The drug sensitive paper is a special drug sensitive paper with a diameter of 6.35 mm and a water absorption of 0.02 mL. The control drug was vancomycin (30μg/tablet); the test drugs were pleuromulin (30 μg/tablet), lipoic acid (30 μg/tablet) and pleuromulin lipoic acid ester (30 μg/tablet).
(§4) Reagents: LB agar medium, LA broth medium, 0.5% DMSO solution.
(§5) The experimental strains were inoculated in non-selective medium and placed in air at 37° C. for 24 h. Pick a single colony that grows well and inoculate it into broth medium, incubate at 35° C.±2° C. for 6 hours, and use LA broth medium to calibrate the concentration of the bacterial solution to 0.5 Mie turbidimetric tube (1.5×10^8 CFU/mL). A bacterial suspension is obtained.
(§6) Weigh the LB dry powder, sterilize at 103.4 Kpa, 121.3° C. high-pressure steam for 15 min, and then put it in a 40° C.-50° C. water bath. Place a sterile empty plate (inner diameter 9 cm) on the surface of the ultra-clean table water table, shake and shake LB, and then pour the plate. The thickness of each plate is 3 mm to 4 mm. After the plate is cooled at room temperature, store it in the refrigerator at 2° C.-8° C. Use a sterile cotton swab to dip the bacterial solution, and evenly coat the surface of the LB plate 3 times. After inoculation of the bacterial suspension, the LB plate was dried at room temperature for 3 min to 5 min. Use sterile forceps to closely attach the antibacterial drug paper to the dish. Put the dish upside down and place it in a 37° C. incubator for 24 h. Observe the result and measure the diameter. Taking 0.5% DMSO solution as a negative control, the antibacterial activity is expressed by the diameter of the inhibition zone. The inhibition zone 17 mm, sensitive; the inhibition zone is 15 mm-16 mm, intermediary; the inhibition zone 14 mm, drug resistance.

Assay [2] has as its system multi-resistant Staphylococcus aureus 18-222. In words: Paper diffusion drug sensitivity test, multi-resistant Staphylococcus aureus 18-222. The conditions noted are these: for Zone of inhibition: Multi-resistant Staphylococcus aureus 18-222, 30 μg/tablet paper disc, LB plate, 37° C., 24 h; for inhibitory effect (in words): multi-drug resistant Staphylococcus aureus 18-222, FIGS. 1-3 and Table 1. How it is done: as §1, §2, §3, §4, §5, §6

In assay [3] the test system is multi-resistant Staphylococcus aureus 18-596. In words: Paper diffusion drug sensitivity test, multi-resistant Staphylococcus aureus 18-596. The following applies: for Zone of inhibition: Multi-resistant Staphylococcus aureus 18-596, 30 μg/tablet paper disc, LB plate, 37° C., 24 h; for inhibitory effect (in words): multi-drug resistant Staphylococcus aureus 18-596, FIGS. 1-3 and Table 1. How it is done: as §1, §2, §3, §4, §5, §6

For `O=C(O)CCCC[C@@H]1CCSS1` (racemic) [Lipoic acid], the Zone of inhibition in assay [1], in assay [2] and in assay [3] was 0 mm in each case. In addition, the “inhibitory effect (in words)” value in assay [1], in assay [2] and in assay [3] was “no inhibitory effect” in each case.

`C=C[C@]1(C)C[C@@H](OC(=O)COC(=O)CCCCC2CCSS2)[C@]2(C)CC[C@@H](C)[C@@]3(CCC(=O)[C@@H]23)[C@@H](C)[C@@H]1O` (stereo partly drawn) [Pleuromulin lipoic acid ester, 2-(((3aS,4R,5S,6S, 8R,9R,9aR,12R)-5-hydroxy-4,6,9,12-tetramethyl-1-oxo-6-vinyldecahydro-3 a, 9-propanocyclopenta[8]annulen-8-yl)oxy)-2-oxoethyl 5-(1,2-dithiolan-3-yl)pentanoate]: the results for the Zone of inhibition in assay [1], in assay [2] and in assay [3] were 16 mm, 16 mm and 20 mm, respectively. The “inhibitory effect (in words)” value in assay [1], in assay [2] and in assay [3] was “strong inhibitory effects” in each case. Besides, the “diameter of bacteriostatic zone” value in assay [3] (multidrug resistant Staphylococcus aureus 18-596) was “up to 21 mm”.

On to `C=C[C@]1(C)C[C@@H](OC(=O)CO)[C@]2(C)[C@H](C)CC[C@]3(CCC(=O)[C@H]32)[C@@H](C)[C@@H]1O` [Pleuromulin], for which the Zone of inhibition in assay [1], in assay [2] and in assay [3] was 0 mm each time. In addition, the “inhibitory effect (in words)” value in assay [1], in assay [2] and in assay [3] was “no inhibitory effect” in each case.

Take `CN[C@H](CC(C)C)C(=O)N[C@H]1C(=O)N[C@@H](CC(N)=O)C(=O)N[C@H]2C(=O)N[C@H]3C(=O)N[C@H](C(=O)N[C@H](C(=O)O)c4cc(O)cc(O)c4-c4cc3ccc4O)[C@H](O)c3ccc(c(Cl)c3)Oc3cc2cc(c3O[C@@H]2O[C@H](CO)[C@@H](O)[C@H](O)[C@H]2O[C@H]2C[C@](C)(N)[C@H](O)[C@H](C)O2)Oc2ccc(cc2Cl)[C@H]1O` [Vancomycin]: the Zone of inhibition turned out to be 17 mm in assay [1], 18 mm in assay [2] and 21 mm in assay [3].
